Data: US20250144099A1, “INK4 TUMOR SUPPRESSOR PROTEINS MEDIATE RESISTANCE TO CDK4/6 KINASE INHIBITORS” (MEMORIAL SLOAN-KETTERING CANCER CENTER, priority 2021, published 2025)
Entries after “also recorded” stand apart in the source; their conditions may differ.

What was measured:
MCF-7 parental cells [1] = experiment: Cell viability assay (Resazurin); assay type: cell-based, human; details: day 7
Description: (§1) Cell viability was measured by Resazurin (R&D Systems, Minneapolis, MN, USA) as described previously (51). Briefly, 1,500 cells were seeded in a 96-well plate and allowed to recover overnight. Cells were treated with drugs at day 0. Resazurin was added to the cells 4 hours prior to the measurements on day 3, day 5 and day 7. Fluorescent intensity was measured using a microplate reader (SpectraMax M5, Molecular Devices, Sunnyvale, CA, USA). IC50 was calculated by GraphPad Prism 7.0 using a sigmoidal regression model.

[2] = tested on: MCF-7 CDK6-high cells (FAT1 loss); experiment: Cell viability assay (Resazurin); assay type: cell-based, human; details: day 7
Description: as §1

CDK6 = CDK6 (Homo sapiens, UniProt Q00534); experiment: Immunoblotting of CDK6 degradation in cells; assay type: cell-based; parameters: MCF7 cells that lost FAT1 expression and with high CDK6 expression; endogenous in cells; host or cells: MCF-7 FAT1 loss cells (also MCF-7 parental)
Sequence of CDK6 (Q00534 whole entry): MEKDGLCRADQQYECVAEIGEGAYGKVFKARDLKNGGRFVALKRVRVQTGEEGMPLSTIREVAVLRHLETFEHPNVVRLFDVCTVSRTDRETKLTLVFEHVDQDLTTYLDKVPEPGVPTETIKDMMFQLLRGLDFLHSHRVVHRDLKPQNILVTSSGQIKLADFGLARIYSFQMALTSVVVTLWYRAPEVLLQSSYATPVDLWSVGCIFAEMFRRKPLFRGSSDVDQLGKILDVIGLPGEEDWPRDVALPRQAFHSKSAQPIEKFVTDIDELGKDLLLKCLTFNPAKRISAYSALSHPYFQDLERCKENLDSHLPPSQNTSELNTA
Description: (§2) Cell lysates were collected in RIPA buffer (Thermo Fisher Scientific) supplemented with protease and phosphatase inhibitors (Pierce). Protein concentration was quantified by using the BCA kit (Fisher Scientific). […] of protein lysates were loaded onto 4-12% SDS-PAGE gels (Invitrogen) for electrophoresis and transferred onto nitrocellular membranes. Blots were blocked with Intercept™ (TBS) Blocking Buffer (LI-COR Bioscience #927-60001) and incubated with primary antibody at 4° C. overnight. Secondary antibodies conjugated with fluorescence (LI-COR Bioscience #926-68071 and #926-32210) were incubated for 1 h at room temperature and blots were scanned by Odyssey Clx Imaging System from LI-COR Bioscience.

MCF-7 parental cells [3] = experiment: Senescence Green staining and cell cycle analysis; assay type: cell-based, human; details: 500 nM; senescence 8 days, cell cycle 24 h
Description: (§3) Senescence analysis. […] Cells were harvested using trypsin/EDTA, then stained with the CellEvent Senescence Green Flow Cytometry Assay Kit (Invitrogen) according to the manufacturer's instructions. Briefly, cells were fixed with 2% paraformaldehyde for 15 min at room temperature and stained with the CellEvent Senescence Green Probe for 2 hours at 37° C. without CO2. After incubation, cells were washed with PBS 3 times and resuspended in FACS buffer (PBS with 2% FBS) for analysis on BD Biosciences LSR Fortessa using a 488 nm laser and 530 nm/30 filter (BD Biosciences). Data analysis was performed with FCS Express 7 (De Novo Software).
Cell cycle analysis. […] Cells were detached from the cell culture dish with trypsin/EDTA, then washed with PBS and fixed in 70% ice-cold EtOH overnight. Prior to staining, EtOH was removed, and cells were washed twice with FACS buffer. Cells were then resuspended in staining buffer containing 1000 μl FACS buffer with 2 μg/ml propidium iodide (Invitrogen) and 100 μg/ml RNase A (Invitrogen). Cell cycle profiles were measured with BD Biosciences LSR Fortessa and analyzed with FCS Express 7.

[4] = tested on: patient-derived xenograft models; experiment: Patient-derived xenograft tumor growth; assay type: in vivo, mice; details: two patient-derived xenograft models; ribociclib at clinical equivalent dose
MOLT4 cells = experiment: Global quantitative mass spectrometry proteomics; assay type: cell-based, human; details: 250 nM, 5 h
Description: Molt4 cells were treated with 250 nM of compounds BSJ-05-017 or BSJ-03-096 (singlicate) or DMSO control (biological triplicate) for 5 hours. Cells were harvested by centrifugation and prepared for mass spectrometry as described previously (28). Data were collected as reported (28). LC-MS data were analyzed using Proteome Discoverer 2.4 (Thermo Fisher Scientific), as previously described (28). Reporter ion intensities were normalized and scaled using in-house scripts in the R framework (63). Statistical analysis was carried out using the limma package within the R framework (64).

[5] = tested on: T47D parental and CDK6-overexpressing cells; experiment: Cell proliferation assay; assay type: cell-based, human; details: recorded at day 3, day 5 and day 7
Description: as §1

CDK6-high cells = experiment: Senescence Green flow cytometry assay; assay type: cell-based, human; details: 8 days; BSJ-05-017 500 nM, abemaciclib 100 nM, palbociclib 500 nM
Description: as §3

phosphorylation of Rb = experiment: Immunoblotting of Rb phosphorylation in cells; assay type: cell-based, human; details: FAT1 loss / CDK6-high CDK4/6i-resistant MCF7 cells
Description: as §2

CC(=O)c1c(C)c2cnc(Nc3ccc(N4CCN(CCCCC(=O)N[C@H](C(=O)N5C[C@H](O)C[C@H]5C(=O)N[C@@H](C)c5ccc(-c6scnc6C)cc5)C(C)(C)C)CC4)cn3)nc2n(C2CCCC2)c1=O [BSJ-05-017, (2S,4R)-1-((S)-2-(5-(4-(6-((6-acetyl-8-cyclopentyl-5-methyl-7-oxo-7,8-dihydropyrido[2,3-d]pyrimidin-2-yl)amino)pyridin-3-yl)piperazin-1-yl)pentanamido)-3,3-dimethylbutanoyl)-4-hydroxy-N—((S)-1-(4-(4-methylthiazol-5-yl)phenyl)ethyl)pyrrolidine-2-carboxamide]
inhibition of cell growth (MCF-7 parental cells [1]): equal potency; also recorded: equipotent in suppressing proliferation
inhibition of cell growth [2]: equal potency; also recorded: equipotent in suppressing proliferation
degradation of CDK6 (CDK6; FAT1 loss / CDK6-high CDK4/6i-resistant MCF7 cells, 24 h treatment): most significant degradation of both CDK4 and CDK6; also recorded: high potency in degrading CDK4 and CDK6
degradation of CDK6 (CDK6; MCF7 cells with overexpression of CDK6): effectively degrade CDK4 and CDK6
senescence and cell cycle arrest (MCF-7 parental cells [3]): induces senescence and cell cycle arrest to a same extent as abemaciclib and palbociclib
inhibition of tumor growth [4]: effective in inhibiting tumor growth
selectivity in global proteomics (MOLT4 cells): highly selective for CDK4 and CDK6
inhibition of cell growth [5]: inhibits the growth of both T47D parental and CDK6-overexpressing cells
senescence-marker positive cells (CDK6-high cells): significantly higher number of cells into senescence compared with abemaciclib or palbociclib
inhibition of phosphorylation of Rb (and downstream E2F1/cyclin A2) (phosphorylation of Rb): effective inhibition of the phosphorylation of Rb
